The compounds below were run on wild oat (assay: Test Example 4: herbicidal effect by soil treatment (Table 19, symbol I)). Conditions: amount of applied herbicide 320 g/ha.
Type: in vivo, wild oat (Avena fatua)
Method in brief: (§1)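 Scoring uses the grading scale of an earlier test, three weeks post-application. Treatment consists of spraying a diluted emulsion formulation across the surface of sterilized diluvial soil in which seeds are buried near 1.5 cm deep; boxes are kept in a greenhouse between 25° C. and 30° C.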

Row | Structure (SMILES) | I: wild oat, herbicidal effect grade
1 | COc1ccccc1-c1sc2cc(OC(F)F)ccc2c1-c1c(O)c(C)nn(C)c1=O [3-113] | 0 (Herbicidal rate of 5% or less (almost no effect))
2 | COc1ccccc1-c1sc2cc(OCc3ccccc3)ccc2c1-c1c(O)c(C)nn(C)c1=O [3-118] | 0 (Herbicidal rate of 5% or less (almost no effect))

These compounds were tested on velvetleaf (assay: Test Example 4: herbicidal effect by soil treatment (Table 19, symbol M)). Conditions: amount of applied herbicide 320 g/ha.
Type: in vivo, velvetleaf (Abutilon theophrasti)
Method in brief: as §1

Row | Structure (SMILES) | M: velvetleaf, herbicidal effect grade
3 | COc1ccccc1-c1sc2cc(OC(F)F)ccc2c1-c1c(O)c(C)nn(C)c1=O [3-113] | 4 (Herbicidal rate of 70% or more and less than 90%)
4 | COc1ccccc1-c1sc2cc(OCc3ccccc3)ccc2c1-c1c(O)c(C)nn(C)c1=O [3-118] | 0 (Herbicidal rate of 5% or less (almost no effect))

What follows are compounds tested on Italian ryegrass (assay: Test Example 5: herbicidal effect by foliage application, plastic box (Table 20, symbol K)). Conditions: foliage application, 320 g/ha, three weeks after application.
Type: in vivo, Italian ryegrass (Lolium multiflorum)
Method in brief: (§2)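 Post-emergence foliar test in sterilized diluvial soil. Compound applied as water-diluted emulsion at a predetermined rate to 14-day-old plants; evaluation at three weeks.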

Row | Structure (SMILES) | K: Italian ryegrass, herbicidal effect grade
5 | COc1ccccc1-c1sc2cc(OC(F)F)ccc2c1-c1c(O)c(C)nn(C)c1=O [3-113] | 5 (Herbicidal rate of 90% or more (almost completely withered))
6 | COc1ccccc1-c1sc2cc(OCc3ccccc3)ccc2c1-c1c(O)c(C)nn(C)c1=O [3-118] | 5 (Herbicidal rate of 90% or more (almost completely withered))

Each compound was assayed on lambsquarters (assay: Test Example 4: herbicidal effect by soil treatment (Table 19, symbol O)). Conditions: amount of applied herbicide 320 g/ha.
Type: in vivo, lambsquarters (Chenopodium album)
Method in brief: as §1

Row | Structure (SMILES) | O: lambsquarters, herbicidal effect grade
7 | COc1ccccc1-c1sc2cc(OC(F)F)ccc2c1-c1c(O)c(C)nn(C)c1=O [3-113] | 5 (Herbicidal rate of 90% or more (almost completely withered))
8 | COc1ccccc1-c1sc2cc(OCc3ccccc3)ccc2c1-c1c(O)c(C)nn(C)c1=O [3-118] | 1 (Herbicidal rate of 5% or more and less than 20%)

The compounds below were run on Japanese bulrush (assay: Test Example 2: herbicidal activity, application during weed generation under submerged conditions (Table 17, symbol B)). Conditions: AAH 320 g/ha; application during weed generation, submerged conditions.
Type: in vivo, Japanese bulrush (Schoenoplectus juncoides)
Method in brief: (§3)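 3-wk visual-criteria score after one water-surface dose. Emulsion formulation, water-diluted to set rate; applied at 1–2 leaf stage; alluvial soil, 4 cm standing water; seeds co-sown; greenhouse 25–30° C.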

Row | Structure (SMILES) | herbicidal effect rating, B: Japanese bulrush
9 | COc1ccccc1-c1sc2cc(OC(F)F)ccc2c1-c1c(O)c(C)nn(C)c1=O [3-113] | 2 (Herbicidal rate of 20% or more and less than 40%)
10 | COc1ccccc1-c1sc2cc(OCc3ccccc3)ccc2c1-c1c(O)c(C)nn(C)c1=O [3-118] | 2 (Herbicidal rate of 20% or more and less than 40%)

The compounds below were run on Japanese bulrush (assay: Test Example 1: herbicidal activity, application before weed generation under submerged conditions (Table 16, symbol B)). Conditions: amount of applied herbicide 320 g/ha.
Type: in vivo, Japanese bulrush (Schoenoplectus juncoides)
Method in brief: (§4)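 Submerged Wagner pots (alluvial soil, 4 cm water) sown with weed seeds and planted with 2.5-leaf rice seedlings; emulsifiable concentrate diluted in water applied to water surface on sowing day. Held in greenhouse at 25-30 °C; injury scored 0-5 by herbicidal rate after three weeks.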

Row | Structure (SMILES) | Herbicidal effect, B: Japanese bulrush
11 | COc1ccccc1-c1sc2cc(OC(F)F)ccc2c1-c1c(O)c(C)nn(C)c1=O [3-113] | 3 (Herbicidal rate of 40% or more and less than 70%)
12 | COc1ccccc1-c1sc2cc(OCc3ccccc3)ccc2c1-c1c(O)c(C)nn(C)c1=O [3-118] | 3 (Herbicidal rate of 40% or more and less than 70%)

These compounds were tested on late watergrass (assay: Test Example 2: herbicidal activity, application during weed generation under submerged conditions (Table 17, symbol A)). Conditions: AAH 320 g/ha; application during weed generation, submerged conditions.
Type: in vivo, late watergrass (Echinochloa oryzicola)
Method in brief: as §3

Row | Structure (SMILES) | herbicidal effect rating, A: late watergrass
13 | COc1ccccc1-c1sc2cc(OC(F)F)ccc2c1-c1c(O)c(C)nn(C)c1=O [3-113] | 0 (Herbicidal rate of 5% or less (almost no effect))
14 | COc1ccccc1-c1sc2cc(OCc3ccccc3)ccc2c1-c1c(O)c(C)nn(C)c1=O [3-118] | 1 (Herbicidal rate of 5% or more and less than 20%)

These compounds were tested on lambsquarters (assay: Test Example 5: herbicidal effect by foliage application, plastic box (Table 20, symbol O)). Conditions: foliage application, 320 g/ha, three weeks after application.
Type: in vivo, lambsquarters (Chenopodium album)
Method in brief: as §2

Row | Structure (SMILES) | O: lambsquarters, herbicidal effect grade
15 | COc1ccccc1-c1sc2cc(OC(F)F)ccc2c1-c1c(O)c(C)nn(C)c1=O [3-113] | 5 (Herbicidal rate of 90% or more (almost completely withered))
16 | COc1ccccc1-c1sc2cc(OCc3ccccc3)ccc2c1-c1c(O)c(C)nn(C)c1=O [3-118] | 5 (Herbicidal rate of 90% or more (almost completely withered))

Each compound was assayed on wild oat (assay: Test Example 5: herbicidal effect by foliage application, plastic box (Table 20, symbol I)). Conditions: foliage application, 320 g/ha, three weeks after application.
Type: in vivo, wild oat (Avena fatua)
Method in brief: as §2

Row | Structure (SMILES) | I: wild oat, herbicidal effect grade
17 | COc1ccccc1-c1sc2cc(OC(F)F)ccc2c1-c1c(O)c(C)nn(C)c1=O [3-113] | 4 (Herbicidal rate of 70% or more and less than 90%)
18 | COc1ccccc1-c1sc2cc(OCc3ccccc3)ccc2c1-c1c(O)c(C)nn(C)c1=O [3-118] | 3 (Herbicidal rate of 40% or more and less than 70%)

Each compound was assayed on windgrass (assay: Test Example 5: herbicidal effect by foliage application, plastic box (Table 20, symbol L)). Conditions: foliage application, 320 g/ha, three weeks after application.
Type: in vivo, windgrass (Apera spica-venti)
Method in brief: as §2

Row | Structure (SMILES) | L: windgrass, herbicidal effect grade
19 | COc1ccccc1-c1sc2cc(OC(F)F)ccc2c1-c1c(O)c(C)nn(C)c1=O [3-113] | 5 (Herbicidal rate of 90% or more (almost completely withered))
20 | COc1ccccc1-c1sc2cc(OCc3ccccc3)ccc2c1-c1c(O)c(C)nn(C)c1=O [3-118] | 5 (Herbicidal rate of 90% or more (almost completely withered))

These compounds were tested on chickweed (assay: Test Example 5: herbicidal effect by foliage application, plastic box (Table 20, symbol P)). Conditions: foliage application, 320 g/ha, three weeks after application.
Type: in vivo, common chickweed (Stellaria media)
Method in brief: as §2

Row | Structure (SMILES) | P: chickweed, herbicidal effect grade
21 | COc1ccccc1-c1sc2cc(OC(F)F)ccc2c1-c1c(O)c(C)nn(C)c1=O [3-113] | 5 (Herbicidal rate of 90% or more (almost completely withered))
22 | COc1ccccc1-c1sc2cc(OCc3ccccc3)ccc2c1-c1c(O)c(C)nn(C)c1=O [3-118] | 3 (Herbicidal rate of 40% or more and less than 70%)

Each compound was assayed on oval-leafed pondweed (assay: Test Example 1: herbicidal activity, application before weed generation under submerged conditions (Table 16, symbol C)). Conditions: amount of applied herbicide 320 g/ha.
Type: in vivo, oval-leafed pondweed (Monochoria vaginalis)
Method in brief: as §4

Row | Structure (SMILES) | Herbicidal effect, C: oval-leafed pondweed
23 | COc1ccccc1-c1sc2cc(OC(F)F)ccc2c1-c1c(O)c(C)nn(C)c1=O [3-113] | 2 (Herbicidal rate of 20% or more and less than 40%)
24 | COc1ccccc1-c1sc2cc(OCc3ccccc3)ccc2c1-c1c(O)c(C)nn(C)c1=O [3-118] | 5 (Herbicidal rate of 90% or more (almost completely withered))

What follows are compounds tested on persian speedwell (assay: Test Example 4: herbicidal effect by soil treatment (Table 19, symbol R)). Conditions: amount of applied herbicide 320 g/ha.
Type: in vivo, Persian speedwell (Veronica persica)
Method in brief: as §1

Row | Structure (SMILES) | R: persian speedwell, herbicidal effect grade
25 | COc1ccccc1-c1sc2cc(OC(F)F)ccc2c1-c1c(O)c(C)nn(C)c1=O [3-113] | 5 (Herbicidal rate of 90% or more (almost completely withered))
26 | COc1ccccc1-c1sc2cc(OCc3ccccc3)ccc2c1-c1c(O)c(C)nn(C)c1=O [3-118] | 5 (Herbicidal rate of 90% or more (almost completely withered))

The compounds below were run on rice flat sedge (assay: Test Example 3: herbicidal effect by foliage application, Wagner pot (Table 18, symbol E)). Conditions: 320 g/ha.
Type: in vivo, rice flat sedge (Cyperus iria)
Method in brief: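 Plants were sown in alluvial soil held under 0.1–0.5 cm standing water and grown 14 days in a greenhouse at 25–30 °C. An emulsifiable formulation, water-diluted to the set dose, was then sprayed onto the foliage, and effects were scored three weeks later using previously defined criteria.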

Row | Structure (SMILES) | herbicidal effect on rice flat sedge (E)
27 | COc1ccccc1-c1sc2cc(OC(F)F)ccc2c1-c1c(O)c(C)nn(C)c1=O [3-113] | 5 (Herbicidal rate of 90% or more (almost completely withered))
28 | COc1ccccc1-c1sc2cc(OCc3ccccc3)ccc2c1-c1c(O)c(C)nn(C)c1=O [3-118] | 5 (Herbicidal rate of 90% or more (almost completely withered))

These compounds were tested on velvetleaf (assay: Test Example 5: herbicidal effect by foliage application, plastic box (Table 20, symbol M)). Conditions: foliage application, 320 g/ha, three weeks after application.
Type: in vivo, velvetleaf (Abutilon theophrasti)
Method in brief: as §2

Row | Structure (SMILES) | M: velvetleaf, herbicidal effect grade
29 | COc1ccccc1-c1sc2cc(OC(F)F)ccc2c1-c1c(O)c(C)nn(C)c1=O [3-113] | 5 (Herbicidal rate of 90% or more (almost completely withered))
30 | COc1ccccc1-c1sc2cc(OCc3ccccc3)ccc2c1-c1c(O)c(C)nn(C)c1=O [3-118] | 2 (Herbicidal rate of 20% or more and less than 40%)

What follows are compounds tested on Italian ryegrass (assay: Test Example 4: herbicidal effect by soil treatment (Table 19, symbol K)). Conditions: amount of applied herbicide 320 g/ha.
Type: in vivo, Italian ryegrass (Lolium multiflorum)
Method in brief: as §1

Row | Structure (SMILES) | K: Italian ryegrass, herbicidal effect grade
31 | COc1ccccc1-c1sc2cc(OC(F)F)ccc2c1-c1c(O)c(C)nn(C)c1=O [3-113] | 5 (Herbicidal rate of 90% or more (almost completely withered))
32 | COc1ccccc1-c1sc2cc(OCc3ccccc3)ccc2c1-c1c(O)c(C)nn(C)c1=O [3-118] | 3 (Herbicidal rate of 40% or more and less than 70%)

These compounds were tested on barnyard grass (assay: Test Example 5: herbicidal effect by foliage application, plastic box (Table 20, symbol H)). Conditions: foliage application, 320 g/ha, three weeks after application.
Type: in vivo, barnyard grass (Echinochloa crus-galli)
Method in brief: as §2

Row | Structure (SMILES) | H: barnyard grass, herbicidal effect grade
33 | COc1ccccc1-c1sc2cc(OC(F)F)ccc2c1-c1c(O)c(C)nn(C)c1=O [3-113] | 5 (Herbicidal rate of 90% or more (almost completely withered))
34 | COc1ccccc1-c1sc2cc(OCc3ccccc3)ccc2c1-c1c(O)c(C)nn(C)c1=O [3-118] | 0 (Herbicidal rate of 5% or less (almost no effect))
